# Results: patent publication US20060276412A1, “METHODS AND COMPOSITIONS FOR MANAGING PSYCHOTIC DISORDERS” (priority 2005, published 2006)
# Several values for one entry are separate records, joined by “and”; a condition that tells them apart may be missing. Identical values can stand only once. Like-named read-outs stand apart in the source and are kept apart here.
# Assays:
# [1] = test system: psychotic patients (bipolar manic state, schizoaffective manic state, schizophrenic excitement); settings: cited from earlier work; for patients showing remarkable global improvement: addition of zonisamide
# [2] = test system: dopamine (DA) in hypothalamus; test: Brain microdialysis: dopamine in hypothalamus; assay type: in vivo, rats; settings: 25 mg/kg zonisamide
# Text: (§1) 62 adult Sprague-Dawley male rats (Harland, Indianapolis) weighing 300-350 g were used in the following studies. The rats were quarantined for at least five days in group housing. Following the quarantine procedure, rats were maintained in individual cages. For surgical implantation with intracerebral guides, guides were inserted directly above either the hypothalamus (HT) (31 rats), or the medial prefrontal cortex (mPFC) (31 rats). Stereotaxic coordinates (Paxinos and Watson, 1986) provided below were used to position the guide cannulae and/or probes: Animals were anesthetiszed according using standard procedures. The head of each animal was shaved from the front of the eyes to the back of the skull. Shaved areas were disinfected, and the animals were placed in stereotaxic frame ear bars. The animal was aligned with the incisor bar. The animal's scalp was cut with a sharp #15 scalpel blade. If the bone began to bleed, bone wax was applied to the incision. Periosteal tissue was cleaned from the skull to the lateral ridges with a cotton swab, and clamps were used to pull the skin out of the way. The probe or guide was placed in the clamp, such that the angled outlet cannula of the microdialysis probe was angled towards the animal's tail. The target coordinates were calculated, and this point was marked on the skull. Two holes in opposing skull bones were drilled for bone anchor screws and thread screws. The dura was torn away with a sharp, pointed object. The guide cannulae were placed at the dorsal/ventral zero point. […] Using dental acrylic, the cannulae were cemented to the bone anchor screws. The cement was allowed to harden and the rodent was removed from the stereotaxic frame. The cranial and caudal aspects of the incision were sutured. The animals were allowed to recover for three to five days. Stylets in the guides were replaced with dialysis probes on the evening prior to study to allow for animal acclimation and to reestablish the integrity of the blood brain barrier. […] Rats were weighed pre-surgery, every 1-2 days post-surgery until time of microdialysis, and postmortem. Microdialysis probes used in the experiments described below were first soaked in standard Ringer's perfusion medium for 30 minutes. Inlet and outlet tubing was connected to each probe using flanged connectors. The outlet tubing was connected to a fraction collector, and the inlet was connected to and […] syringe drive. The probes were immersed in fresh Ringer's solution and flushed with Ringer's perfusion medium at a rate of 2 μl/min for 1 hour. The probe was then transferred to the intracerebral guide on the rat's skull. […] Water was added to obtain a final concentration of 0.3 mg/ml. […] Zonisamide was dissolved in DMSO. […] The final concentration of zonisamide was 7.5 mg/ml. The drug solution was maintained at 37° C. prior to injection. The rats were divided into ten test groups. Five animals were analyzed for each test group. The test groups were as follows: For the microdialysis experiments, perfusion consisted of 2 μl/min delivery of sterile standard Ringer's solution for intervals of 20 minutes. Final collection volumes were 40 μl. 30 μl samples were analyzed for each analyte: DA, NE, 5HT. 12 pre-dose samples and 12 post dose samples were collected every 20 minutes for a duration of 4 hours, both pre-dose and post-dose. Six samples from the pre-dose and post-dose collections were analyzed for norepinephrine. The remaining six samples from the pre-dose and post-dose collections were analyzed for both dopamine and serotonin. Samples were chilled to -80° C. immediately following collection. The samples were analyzed using liquid chromatography with electrochemical detection using conventional techniques. See, e.g., Huang, T., R. et al. (1994) New […] Microbore Columns for Liquid Chromatography. Current Separations 12(4): 191-195. […] Concentrations of each compound are expressed as % baseline.
# [3] = patients presenting with primary obesity; cited from earlier work
# [4] = test system: serotonin (5HT) in medial prefrontal cortex; test: Brain microdialysis: serotonin in mPFC; assay type: in vivo, rats; settings: 25 mg/kg zonisamide
# Text: as §1
# [5] = test system: norepinephrine (NE) in hypothalamus; test: Brain microdialysis: norepinephrine in hypothalamus; assay type: in vivo, rats; settings: 25 mg/kg zonisamide
# Text: as §1
# carbonic anhydrase = settings: cited from earlier work
# [6] = test system: norepinephrine (NE) in medial prefrontal cortex; test: Brain microdialysis: norepinephrine in mPFC; assay type: in vivo, rats; settings: 25 mg/kg zonisamide
# Text: as §1
# [7] = test system: serotonin (5HT) in hypothalamus; test: Brain microdialysis: serotonin in hypothalamus; assay type: in vivo, rats; settings: 25 mg/kg zonisamide
# Text: as §1
# [8] = test system: dopamine (DA) in medial prefrontal cortex; test: Brain microdialysis: dopamine in mPFC; assay type: in vivo, rats; settings: 25 mg/kg zonisamide
# Text: as §1
smiles,measurement,setting,value
NS(=O)(=O)Cc1noc2ccccc12 [zonisamide],patients showing remarkable global improvement,[1]; all the patients (24),Approximately 25%
same,patients with more than moderate global improvement,[1]; all the patients (24),Approximately 71%
same,patients with more than moderate global improvement,[1]; bipolar group,~80%
same,patients showing remarkable global improvement,[1]; bipolar manic patients,~33%
same,Dopamine concentrations in hypothalamus,[2]; 3 HOUR AVE,104.3854 % baseline and 105.438 % baseline
same,Dopamine concentrations in hypothalamus,[2]; 40 min post dose,121.635 % baseline
same,Dopamine concentrations in hypothalamus,[2]; 80 min post dose,72.946 % baseline
same,Dopamine concentrations in hypothalamus,[2]; 120 min post dose,91.707 % baseline
same,Dopamine concentrations in hypothalamus,[2]; 160 min post dose,66.181 % baseline
same,Dopamine concentrations in hypothalamus,[2]; 200 min post dose,143.010 % baseline
same,Dopamine concentrations in hypothalamus,[2]; 240 min post dose,123.012 % baseline
same,Dopamine concentrations in hypothalamus,[2]; -20 min pre dose,142.394 % baseline
same,Dopamine concentrations in hypothalamus,[2]; -60 min pre dose,56.252 % baseline
same,Dopamine concentrations in hypothalamus,[2]; -100 min pre dose,101.354 % baseline
same,weight loss,[3],significant weight loss
same,Serotonin concentrations in mPFC,[4]; 3 HOUR AVE,77.954 % baseline and 77.9543 % baseline
same,Serotonin concentrations in mPFC,[4]; 40 min post dose,96.932 % baseline
same,Serotonin concentrations in mPFC,[4]; 80 min post dose,74.461 % baseline
same,Serotonin concentrations in mPFC,[4]; 120 min post dose,60.557 % baseline
same,Serotonin concentrations in mPFC,[4]; 160 min post dose,82.729 % baseline
same,Serotonin concentrations in mPFC,[4]; 200 min post dose,89.529 % baseline
same,Serotonin concentrations in mPFC,[4]; 240 min post dose,63.518 % baseline
same,Serotonin concentrations in mPFC,[4]; -20 min pre dose,107.652 % baseline
same,Serotonin concentrations in mPFC,[4]; -60 min pre dose,119.648 % baseline
same,Serotonin concentrations in mPFC,[4]; -100 min pre dose,72.700 % baseline
same,Norepinephrine concentrations in hypothalamus,[5]; 3 HOUR AVE,124.221 % baseline and 124.272 % baseline
same,Norepinephrine concentrations in hypothalamus,[5]; 20 min post dose,194.380 % baseline
same,Norepinephrine concentrations in hypothalamus,[5]; 60 min post dose,151.267 % baseline
same,Norepinephrine concentrations in hypothalamus,[5]; 100 min post dose,101.287 % baseline
same,Norepinephrine concentrations in hypothalamus,[5]; 140 min post dose,99.489 % baseline
same,Norepinephrine concentrations in hypothalamus,[5]; 180 min post dose,102.237 % baseline
same,Norepinephrine concentrations in hypothalamus,[5]; 220 min post dose,91.722 % baseline
same,Norepinephrine concentrations in hypothalamus,[5]; -40 min pre dose,111.356 % baseline
same,Norepinephrine concentrations in hypothalamus,[5]; -80 min pre dose,88.184 % baseline
same,Norepinephrine concentrations in hypothalamus,[5]; -120 min pre dose,100.460 % baseline
same,inhibitory effect on carbonic anhydrase,carbonic anhydrase,weak inhibitory effect
same,Norepinephrine concentrations in mPFC,[6]; 3 HOUR AVE,114.112 % baseline and 114.142 % baseline
same,Norepinephrine concentrations in mPFC,[6]; 20 min post dose,164.376 % baseline
same,Norepinephrine concentrations in mPFC,[6]; 60 min post dose,102.033 % baseline
same,Norepinephrine concentrations in mPFC,[6]; 100 min post dose,105.920 % baseline
same,Norepinephrine concentrations in mPFC,[6]; 140 min post dose,102.114 % baseline
same,Norepinephrine concentrations in mPFC,[6]; 180 min post dose,115.233 % baseline
same,Norepinephrine concentrations in mPFC,[6]; 220 min post dose,95.176 % baseline
same,Norepinephrine concentrations in mPFC,[6]; -40 min pre dose,101.451 % baseline
same,Norepinephrine concentrations in mPFC,[6]; -80 min pre dose,106.249 % baseline
same,Norepinephrine concentrations in mPFC,[6]; -120 min pre dose,92.300 % baseline
same,Serotonin concentrations in hypothalamus,[7]; 3 HOUR AVE,96.664 % baseline and 96.6637 % baseline
same,Serotonin concentrations in hypothalamus,[7]; 40 min post dose,139.708 % baseline
same,Serotonin concentrations in hypothalamus,[7]; 80 min post dose,88.171 % baseline
same,Serotonin concentrations in hypothalamus,[7]; 120 min post dose,87.586 % baseline
same,Serotonin concentrations in hypothalamus,[7]; 160 min post dose,64.925 % baseline
same,Serotonin concentrations in hypothalamus,[7]; 200 min post dose,98.920 % baseline
same,Serotonin concentrations in hypothalamus,[7]; 240 min post dose (Table 7),100.672 % baseline
same,Serotonin concentrations in hypothalamus,[7]; +220 min post dose,100.672 % baseline
same,Serotonin concentrations in hypothalamus,[7]; -20 min pre dose,133.061 % baseline
same,Serotonin concentrations in hypothalamus,[7]; -60 min pre dose,79.388 % baseline
same,Serotonin concentrations in hypothalamus,[7]; -100 min pre dose,87.552 % baseline
same,Dopamine concentrations in mPFC,[8]; 3 HOUR AVE,117.183 % baseline
same,Dopamine concentrations in mPFC,[8]; 40 min post dose,166.688 % baseline
same,Dopamine concentrations in mPFC,[8]; 80 min post dose,86.224 % baseline
same,Dopamine concentrations in mPFC,[8]; 120 min post dose,111.764 % baseline
same,Dopamine concentrations in mPFC,[8]; 160 min post dose,109.627 % baseline
same,Dopamine concentrations in mPFC,[8]; 200 min post dose,94.060 % baseline
same,Dopamine concentrations in mPFC,[8]; 240 min post dose,134.732 % baseline
same,Dopamine concentrations in mPFC,[8]; -20 min pre dose,98.672 % baseline
same,Dopamine concentrations in mPFC,[8]; -60 min pre dose,87.652 % baseline
same,Dopamine concentrations in mPFC,[8]; -100 min pre dose,113.677 % baseline
